Laboratory results from patent US20100267952A1, “USE OF NOVEL COMPOUND HAVING AFFINITY FOR AMYLOID, AND PROCESS FOR PRODUCTION OF THE SAME” (NIHON MEDI-PHYSICS CO., LTD., priority 2007, published 2010).

What was measured:
[1] = target: T1, amyloid (aggregated Aβ1-42) injected into amygdaloid nucleus (Homo sapiens, UniProt P05067); assay: Confirmation of imaging of amyloid in brain (autoradiogram of brain slice, Aβ1-42 injected rat); type: in vivo, male Wistar rat; conditions: tail vein, 11-15 MBq equivalent, brain removed 60 minutes after injection
T1 construct: Aβ1-42 (Wako) was dissolved in phosphate buffer (pH 7.4); purchased Wako
Procedure: (1) Aβ1-42 (Wako) was dissolved in phosphate buffer (pH 7.4) and shaken at 37° C. for 72 hours, to obtain a 1 mg/mL suspension of aggregated Aβ (hereinafter referred to as amyloid suspension in this Example).
(2) 2.5 μL (corresponding to 25 μg) of the amyloid suspension was injected into an amygdaloid nucleus on one side of a male Wistar rat (7-week old). As a control, 2.5 μL of a phosphate buffered physiological saline solution (pH 7.4) was injected into an amygdaloid nucleus on the other side of the rat. The rats were examined 1 day after the injection of the amyloid suspension and the phosphate buffered physiological saline solution (pH 7.4).
This solution was injected under thiopental anesthesia into the rat through the tail vein (dosage: 0.5 mL, dosed radioactivity: 11-15 MBq equivalent).
(4) Brain was removed 60 minutes after the injection to prepare a brain slice of 10 μm in thickness with a microtome (type: CM3050S, manufactured by LEICA). The brain slice was exposed to an imaging plate for 20 hours, and then image analysis was carried out by use of a Bio-imaging Analyzer (type: BAS-2500; manufactured by FUJIFILM Corporation).

[2] = Radioactive distribution ratio in each organ; type: in vivo, SD rat
Procedure: 0.2 mL each of the prepared sample solution was administered under non-thiopental anesthesia into the tail vein of the above rat. The rats were sacrificed by bleeding from abdominal artery, and each organ shown in Table 3 was removed 5, 30, 60 and 180 minutes after the administration. […] Also, radioactivity of the whole body of the rat after removal of the organs (hereinafter referred to as rest of the whole body) was measured. Using these measurement results, radioactive distribution per unit weight of each organ (% ID/g) at the respective time points was calculated in accordance with the following formula (3).
Three animals were used for the experiment at the respective time points.
R^T: Radioactivity of target organ (cpm) R^S: Sum of radioactivity of all the organs (cpm) R^R: Radioactivity of the rest of the whole body (cpm) M^T: Mass of target organ (g)

[3] = Transferability into brain and clearance (2); type: in vivo, male Wistar rats; conditions: rats, intravenous injection, Table 1-10
Procedure: 0.05 mL each of these solutions was injected under thiopental anesthesia into the tail vein of respective Wistar rats (7-week old). The rats were sacrificed by bleeding from abdominal artery, and brains were removed and subjected to measurement of mass of brains and further subjected to measurement of radioactivity (hereinafter referred to as A in this Example) with a single channel analyzer (detector type: SP-20 manufactured by OHYO KOKEN KOGYO Co., Ltd.) 2, 5, 30 and 60 minutes after the injection. Also, radioactivity (hereinafter referred to as B in this Example) of the rest of the whole body was measured in the same manner as above. Using these measurement results, radioactive distribution per unit weight of brain (% ID/g) at the respective time points were calculated in accordance with the following formula (1-7).
Three animals were used for experiment at the respective time points.

[4] = [11C]-labeled, rats; cited from earlier work
[5] = SD rat, tail vein, 5 min. after administration
[6] = SD rat, tail vein, 30 min. after administration
[7] = SD rat, tail vein, 60 min. after administration
[8] = SD rat, tail vein, 180 min. after administration

T1 sequence (P05067 672-713): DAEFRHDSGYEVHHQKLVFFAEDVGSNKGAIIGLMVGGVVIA

With `FCCOc1ccc(-c2cn3cc([123I])ccc3n2)cc1` [Compound I-9, 2-[4′-(2″-fluoroethoxy)phenyl]-6-[^123I]iodoimidazo[1,2-a]pyridine] the “accumulation of radioactivity in amygdaloid nucleus on the amyloid-injected side (autoradiogram)” value [1] was “marked accumulation of radioactivity”, the “excretion / clearance to the outside of the body” value ([2]; SD rat, tail vein) was “biliary-excreted rapidly after the administration” and the “Radioactive distribution per unit weight, Adrenal gland, Average” value [2, 5] was 3.914 % ID/g. For the same molecule, the “Radioactive distribution per unit weight, Adrenal gland, Average” value [2, 6] was 0.457 % ID/g, the “Radioactive distribution per unit weight, Adrenal gland, Average” value [2, 7] was 0.260 % ID/g and the “Radioactive distribution per unit weight, Adrenal gland, Average” value [2, 8] was 0.017 % ID/g. The “Radioactive distribution per unit weight, Blood, Average” value [2, 5] was 0.370 % ID/g, the “Radioactive distribution per unit weight, Blood, Average” value [2, 6] was 0.142 % ID/g and the “Radioactive distribution per unit weight, Blood, Average” value [2, 7] was 0.108 % ID/g. The “Radioactive distribution per unit weight, Blood, Average” value [2, 8] was 0.074 % ID/g, the “Radioactive distribution per unit weight, Bone, Average” value [2, 5] was 0.187 % ID/g and the “Radioactive distribution per unit weight, Bone, Average” value [2, 6] was 0.067 % ID/g. The “Radioactive distribution per unit weight, Bone, Average” value [2, 7] was 0.045 % ID/g, the “Radioactive distribution per unit weight, Bone, Average” value [2, 8] was 0.032 % ID/g and the “Radioactive distribution per unit weight, Brain, Average” value [2, 5] was 0.701 % ID/g. The “Radioactive distribution per unit weight, Brain, Average” value [2, 6] was 0.067 % ID/g, the “Radioactive distribution per unit weight, Brain, Average” value [2, 7] was 0.026 % ID/g and the “Radioactive distribution per unit weight, Brain, Average” value [2, 8] was 0.007 % ID/g. The “Radioactive distribution per unit weight, Heart, Average” value [2, 5] was 0.551 % ID/g, the “Radioactive distribution per unit weight, Heart, Average” value [2, 6] was 0.111 % ID/g and the “Radioactive distribution per unit weight, Heart, Average” value [2, 7] was 0.059 % ID/g. For the same molecule, the “Radioactive distribution per unit weight, Heart, Average” value [2, 8] was 0.030 % ID/g, the “Radioactive distribution per unit weight, Kidney, Average” value [2, 5] was 1.114 % ID/g and the “Radioactive distribution per unit weight, Kidney, Average” value [2, 6] was 0.560 % ID/g. The “Radioactive distribution per unit weight, Kidney, Average” value [2, 7] was 0.302 % ID/g, the “Radioactive distribution per unit weight, Kidney, Average” value [2, 8] was 0.108 % ID/g and the “Radioactive distribution per unit weight, Large intestine, Average” value [2, 5] was 0.106 % ID/g. For the same molecule, the “Radioactive distribution per unit weight, Large intestine, Average” value [2, 6] was 0.070 % ID/g, the “Radioactive distribution per unit weight, Large intestine, Average” value [2, 7] was 0.074 % ID/g and the “Radioactive distribution per unit weight, Large intestine, Average” value [2, 8] was 5.241 % ID/g. The “Radioactive distribution per unit weight, Liver, Average” value [2, 5] was 2.399 % ID/g, the “Radioactive distribution per unit weight, Liver, Average” value [2, 6] was 0.337 % ID/g and the “Radioactive distribution per unit weight, Liver, Average” value [2, 7] was 0.178 % ID/g. For the same molecule, the “Radioactive distribution per unit weight, Liver, Average” value [2, 8] was 0.067 % ID/g, the “Radioactive distribution per unit weight, Lung, Average” value [2, 5] was 0.647 % ID/g and the “Radioactive distribution per unit weight, Lung, Average” value [2, 6] was 0.192 % ID/g. For the same molecule, the “Radioactive distribution per unit weight, Lung, Average” value [2, 7] was 0.130 % ID/g, the “Radioactive distribution per unit weight, Lung, Average” value [2, 8] was 0.074 % ID/g and the “Radioactive distribution per unit weight, Marrow, Average” value [2, 5] was 0.815 % ID/g. The “Radioactive distribution per unit weight, Marrow, Average” value [2, 6] was 0.075 % ID/g, the “Radioactive distribution per unit weight, Marrow, Average” value [2, 7] was 0.000 % ID/g and the “Radioactive distribution per unit weight, Marrow, Average” value [2, 8] was 0.000 % ID/g. For the same molecule, the “Radioactive distribution per unit weight, Muscle, Average” value [2, 5] was 0.239 % ID/g, the “Radioactive distribution per unit weight, Muscle, Average” value [2, 6] was 0.052 % ID/g and the “Radioactive distribution per unit weight, Muscle, Average” value [2, 7] was 0.031 % ID/g. For the same molecule, the “Radioactive distribution per unit weight, Muscle, Average” value [2, 8] was 0.016 % ID/g, the “Radioactive distribution per unit weight, Pancreas, Average” value [2, 5] was 0.650 % ID/g and the “Radioactive distribution per unit weight, Pancreas, Average” value [2, 6] was 0.236 % ID/g. The “Radioactive distribution per unit weight, Pancreas, Average” value [2, 7] was 0.115 % ID/g, the “Radioactive distribution per unit weight, Pancreas, Average” value [2, 8] was 0.073 % ID/g and the “Radioactive distribution per unit weight, Small intestine, Average” value [2, 5] was 1.259 % ID/g. For the same molecule, the “Radioactive distribution per unit weight, Small intestine, Average” value [2, 6] was 6.598 % ID/g, the “Radioactive distribution per unit weight, Small intestine, Average” value [2, 7] was 8.235 % ID/g and the “Radioactive distribution per unit weight, Small intestine, Average” value [2, 8] was 2.657 % ID/g. For the same molecule, the “Radioactive distribution per unit weight, Spleen, Average” value [2, 5] was 0.442 % ID/g, the “Radioactive distribution per unit weight, Spleen, Average” value [2, 6] was 0.092 % ID/g and the “Radioactive distribution per unit weight, Spleen, Average” value [2, 7] was 0.069 % ID/g. For the same molecule, the “Radioactive distribution per unit weight, Spleen, Average” value [2, 8] was 0.037 % ID/g, the “Radioactive distribution per unit weight, Stomach, Average” value [2, 5] was 0.287 % ID/g and the “Radioactive distribution per unit weight, Stomach, Average” value [2, 6] was 0.619 % ID/g. For the same molecule, the “Radioactive distribution per unit weight, Stomach, Average” value [2, 7] was 0.672 % ID/g, the “Radioactive distribution per unit weight, Stomach, Average” value [2, 8] was 0.812 % ID/g and the “ratio (% ID/g at 5 minutes after the administration)/(% ID/g at 180 minutes after the administration)” value ([2]; bone) was 6. For the same molecule, the “ratio (% ID/g at 5 minutes after the administration)/(% ID/g at 180 minutes after the administration)” value ([2]; brain) was 94, the “ratio (% ID/g at 5 minutes after the administration)/(% ID/g at 180 minutes after the administration)” value ([2]; heart) was 18 and the “ratio (% ID/g at 5 minutes after the administration)/(% ID/g at 180 minutes after the administration)” value ([2]; lung) was 9. The “ratio (% ID/g at 5 minutes after the administration)/(% ID/g at 180 minutes after the administration)” value ([2]; pancreas) was 9, the “Radioactive distribution per unit weight in brain, After 2 min.” value ([3]; 2 min.) was 0.72 % ID/g and the “Radioactive distribution per unit weight in brain, After 5 min.” value ([3]; 5 min.) was 0.49 % ID/g. The “Radioactive distribution per unit weight in brain, After 30 min.” value ([3]; 30 min.) was 0.07 % ID/g and the “Radioactive distribution per unit weight in brain, After 60 min.” value ([3]; 60 min.) was 0.02 % ID/g.

In the case of `CNc1ccc(/C=C/c2ccc(O)cc2)cc1` [SB-13, (E)-4-methylamino-4′-hydroxystilbene], the “clearance from normal tissues” value [4] is given as “it cannot be said that the clearance is sufficiently fast”.
